Test results from PMC10020548, “Synthesis and structure–activity relationship studies of benzimidazole-thioquinoline derivatives as α-glucosidase inhibitors” (Scientific Reports, 2023).
Read-outs that look alike come from different tables or passages of the source.

Columns and labels:
[1] = target: T1, α-Glucosidase enzyme (EC3.2.1.20, Saccharomyces cerevisiae) (Saccharomyces cerevisiae, UniProt P53341); test: biochemical; conditions: α-glucosidase from S. cerevisiae, substrate p-nitrophenyl glucopyranoside, pH 6.8, 37 °C; mean ± SD
T1 construct: purchased Sigma-Aldrich
T1 sequence (P53341 whole entry): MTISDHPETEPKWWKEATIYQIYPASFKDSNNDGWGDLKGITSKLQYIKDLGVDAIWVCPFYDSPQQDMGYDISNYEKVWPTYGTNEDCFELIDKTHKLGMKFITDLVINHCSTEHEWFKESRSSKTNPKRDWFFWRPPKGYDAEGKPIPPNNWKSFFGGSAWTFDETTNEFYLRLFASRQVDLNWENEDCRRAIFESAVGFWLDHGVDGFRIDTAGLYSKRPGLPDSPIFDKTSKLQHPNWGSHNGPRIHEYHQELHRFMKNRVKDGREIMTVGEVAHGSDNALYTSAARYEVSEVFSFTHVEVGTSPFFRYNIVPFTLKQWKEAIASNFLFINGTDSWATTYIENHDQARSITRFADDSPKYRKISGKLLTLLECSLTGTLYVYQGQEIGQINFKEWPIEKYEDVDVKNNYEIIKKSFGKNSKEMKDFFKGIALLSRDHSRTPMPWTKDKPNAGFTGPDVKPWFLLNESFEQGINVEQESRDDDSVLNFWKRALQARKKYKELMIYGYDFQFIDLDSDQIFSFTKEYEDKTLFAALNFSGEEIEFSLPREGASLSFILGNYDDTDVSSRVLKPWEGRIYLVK
Experimental: α-Glucosidase enzyme (EC3.2.1.20, Saccharomyces cerevisiae, 20 U/mg) and substrate (p-nitrophenyl glucopyranoside) were purchased from Sigma-Aldrich. 1 mg of α-glucosidase was dissolved in potassium phosphate buffer (50 mM, pH = 6.8) to obtain the initial activity of 1 U ml^–1. Then, 20 µl of this enzyme solution was incubated with 135 µl of potassium phosphate buffer and 20 µl of test compound at various concentrations in DMSO. Therefore, the final concentration of the enzyme was about 0.1 U ml^–1. After 10 min incubation at 37 °C, 25 µl of the substrate at a final concentration of 4 mM was added to the mixture and allowed to incubate at 37 °C for 20 min.
The percentage of inhibition for each entry was calculated by using the following formula: %Inhibition=[(Abscontrol-Abssample)/Abscontrol]×100 IC50 values were obtained from the nonlinear regression curve using the Logit method.

α-glucosidase [2] = target: α-glucosidase (Saccharomyces cerevisiae, UniProt P53341); test: Enzyme kinetic studies (Lineweaver–Burk plot, secondary plot); assay type: biochemical
Chain of α-glucosidase (Saccharomyces cerevisiae, UniProt P53341) (P53341 whole entry): as above
Experimental: A Lineweaver–Burk plot was generated to identify the type of inhibition and the Michaelis–Menten constant (Km) value was determined from the plot between the reciprocal of the substrate concentration (1/[S]) and reciprocal of enzyme rate (1/V) over various inhibitor concentrations. The experimental inhibitor constant (Ki) value was constructed by secondary plots of the inhibitor concentration [I] versus Km[43],[44].

α-glucosidase [3] = conditions: cited from earlier work
α-glucosidase [4] = tested on: α-glucosidase; design: method as in PMID 34717239; conditions: cited from earlier work
LO2 cells = tested on: LO2 cells; design: method as in PMID 34717239; conditions: cited from earlier work

Row | SMILES | IC50 [1] [µM] | other results
1 | c1ccc(CSc2nc3ccccc3cc2-c2nc3ccccc3[nH]2)cc1 [Compound 6a, 3-(1H-benzo[d]imidazol-2-yl)-2-(benzylthio) quinoline] | 153.7 ± 0.9 | –
2 | Fc1ccccc1CSc1nc2ccccc2cc1-c1nc2ccccc2[nH]1 [Compound 6b, 3-(1H-benzo[d]imidazol-2-yl)-2-((2-fluorobenzyl)thio)quinoline] | 188 ± 2.4 | –
3 | Fc1cccc(CSc2nc3ccccc3cc2-c2nc3ccccc3[nH]2)c1 [Compound 6c, 3-(1H-benzo[d]imidazol-2-yl)-2-((3-fluorobenzyl)thio)quinoline] | 76.7 ± 0.7 | –
4 | Fc1ccc(CSc2nc3ccccc3cc2-c2nc3ccccc3[nH]2)cc1 [Compound 6d, 3-(1H-benzo[d]imidazol-2-yl)-2-((4-fluorobenzyl)thio)quinoline] | 80.9 ± 1.1 | –
5 | Clc1ccccc1CSc1nc2ccccc2cc1-c1nc2ccccc2[nH]1 [Compound 6e, 3-(1H-benzo[d]imidazol-2-yl)-2-((2-chlorobenzyl)thio)quinoline] | 663.7 ± 1.2 | –
6 | Clc1cccc(CSc2nc3ccccc3cc2-c2nc3ccccc3[nH]2)c1 [Compound 6f, 3-(1H-benzo[d]imidazol-2-yl)-2-((3-chlorobenzyl)thio)quinoline] | 48.2 ± 0.4 | –
7 | Clc1ccc(CSc2nc3ccccc3cc2-c2nc3ccccc3[nH]2)cc1 [Compound 6g, 3-(1H-benzo[d]imidazol-2-yl)-2-((4-chlorobenzyl)thio)quinoline] | 96.6 ± 0.1 | –
8 | Brc1ccccc1CSc1nc2ccccc2cc1-c1nc2ccccc2[nH]1 [Compound 6h, 3-(1H-benzo[d]imidazol-2-yl)-2-((2-bromobenzyl)thio)quinoline] | 133.5 ± 1.3 | –
9 | Brc1cccc(CSc2nc3ccccc3cc2-c2nc3ccccc3[nH]2)c1 [Compound 6i, 3-(1H-benzo[d]imidazol-2-yl)-2-((3-bromobenzyl)thio)quinoline] | 65.5 ± 2 | –
10 | Brc1ccc(CSc2nc3ccccc3cc2-c2nc3ccccc3[nH]2)cc1 [Compound 6j, 3-(1H-benzo[d]imidazol-2-yl)-2-((4-bromobenzyl)thio)quinoline] | 28 ± 0.6 | Ki (α-glucosidase [2]; secondary plot of Km versus inhibitor concentration, read-out: inhibition constant, Ki): 28.1 µM; inhibition pattern (Lineweaver–Burk plot) (α-glucosidase [2]; substrate p-nitrophenyl α-D-glucopyranoside 1–16 mM, inhibitor 0, 7, 14, 28 µM): competitive inhibition
11 | Clc1ccc(CSc2nc3ccccc3cc2-c2nc3ccccc3[nH]2)cc1Cl [Compound 6k, 3-(1H-benzo[d]imidazol-2-yl)-2-((3,4-dichlorobenzyl)thio)quinoline] | 99.4 | –
12 | Cc1ccccc1CSc1nc2ccccc2cc1-c1nc2ccccc2[nH]1 [Compound 6l, 3-(1H-benzo[d]imidazol-2-yl)-2-((2-methylbenzyl)thio)quinoline] | 195.7 ± 0.6 | –
13 | Cc1cccc(CSc2nc3ccccc3cc2-c2nc3ccccc3[nH]2)c1 [Compound 6m, 3-(1H-benzo[d]imidazol-2-yl)-2-((3-methylbenzyl)thio)quinoline] | 158 ± 2.4 | –
14 | Cc1ccc(CSc2nc3ccccc3cc2-c2nc3ccccc3[nH]2)cc1 [Compound 6n, 3-(1H-benzo[d]imidazol-2-yl)-2-((4-methylbenzyl)thio)quinoline] | 116.6 ± 0.5 | –
15 | Cc1cccc(CSc2nc3ccccc3cc2-c2nc3ccccc3[nH]2)c1C [Compound 6o, 3-(1H-benzo[d]imidazol-2-yl)-2-((2,3-dimethylbenzyl)thio)quinoline] | 126.9 ± 0.5 | –
16 | O=[N+]([O-])c1ccc(CSc2nc3ccccc3cc2-c2nc3ccccc3[nH]2)cc1 [Compound 6p, 3-(1H-benzo[d]imidazol-2-yl)-2-((4-nitrobenzyl)thio)quinoline] | 89.2 ± 1.3 | –
17 | COc1ccc(CSc2nc3ccccc3cc2-c2nc3ccccc3[nH]2)cc1 [Compound 6q, 3-(1H-benzo[d]imidazol-2-yl)-2-((4-methoxybenzyl)thio)quinoline] | 67.3 ± 0.8 | –
18 | CCSc1nc2ccccc2cc1-c1nc2ccccc2[nH]1 [Compound 6r, 3-(1H-benzo[d]imidazol-2-yl)-2-(ethylthio)quinoline] | 300.7 ± 2 | –
19 | O=C(O)c1ccc2ccccc2n1 [Compound A, Quinoline-2-carboxylic acid] | – | IC50 (α-glucosidase [3]): 9.1 ± 2.3 µg/mL
20 | O=C(N/N=C/c1ccc(O)c(O)c1)c1ccc(-c2nnc(-c3ccc4ncccc4c3)o2)cc1 [Compound B] | – | IC50 (α-glucosidase [3]; oxadiazole-quinoline study, read-out: IC50): 2.6 ± 0.01 µM
21 | O=C(N/N=C/c1ccc(O)c(O)c1)c1ccc2ncccc2c1 [Compound C] | – | IC50 (α-glucosidase [3]; quinoline derivatives study, read-out: IC50): 6.2 ± 0.3 µM
22 | O=c1c(C(c2c[nH]c3ccccc23)c2c[nH]c3ccccc23)cc2ccccc2n1Cc1ccccc1 [Compound D] | – | IC50 (α-glucosidase [3]; quinolone-bis(indolyl)methane hybrids study, read-out: IC50): 21.8 ± 1.8 µM
23 | Brc1ccc(CNc2cccc(-c3nc4ccccc4[nH]3)c2)cn1 [E] | – | IC50 (α-glucosidase [3]; in-house library hit, read-out: IC50): 37.9 ± 1.86 µM
24 | CC(C)(C)c1ccc(C(=O)Oc2cccc(-c3nc4ccccc4[nH]3)c2)cc1 [F] | – | IC50 (α-glucosidase [3]; 2-phenyl-1H-benzo[d]imidazole derivatives, read-out: IC50): 0.71 ± 0.02 µM; type of inhibition (kinetic study) (α-glucosidase [4]): non-competitive inhibition; cytotoxicity against LO2 cells (LO2 cells): no cytotoxicity
25 | Cc1cc2nc(-c3ccc(C(=O)N/N=C/c4cc(O)c(O)c(O)c4)cc3)[nH]c2cc1C [G] | – | IC50 (α-glucosidase [3]; benzimidazole derivatives (Zawawi and coworkers), read-out: IC50): 8.4 ± 0.76 µM
26 | Cc1cccc2nc(-c3ccccc3Cl)[nH]c12 [H] | – | IC50 (α-glucosidase [3]; benzimidazole of previous studies, read-out: IC50): 5.3 ± 0.1 µM
